Values quoted from earlier work, collected in patent EP0374532B1, “Improved phase separation-microencapsulated pharmaceutical compositions useful for alleviating dental disease” (AMERICAN CYANAMID COMPANY, priority 1988, dated 1990).

Conditions: human periodontal fluid versus serum

**Q.** For `CN(C)c1ccc(O)c2c1C[C@H]1C[C@H]3[C@H](N(C)C)C(O)=C(C(N)=O)C(=O)[C@@]3(O)C(O)=C1C2=O` [minocycline, 7-dimethylamino-6-deoxy-6-demethyltetracycline], which “levels in human periodontal fluid higher than serum levels” value is on record?
**A.** five
